Experimental data: article PMC9143880, “Improving Antimicrobial Activity and Physico-Chemical Properties by Isosteric Replacement of 2-Aminothiazole with 2-Aminooxazole” (Pharmaceuticals, 2022)
In brackets after ≈: the same amount, converted by molar mass. Where two headings read alike, the source gives them in different places.

Experiments:
M. tuberculosis H37Rv = conditions: whole cell, cited from earlier work
[1] = tested on: Mtb H37Rv CNCTC My 331/88 (ATCC 27294); test: microbe, parasite or virus in culture; format: cell-based; conditions: Mycobacterium tuberculosis, read-out: MIC Mtb H37Rv
[2] = tested on: Mycobacterium tuberculosis H37Ra ITM-M006710 (ATCC 9431); test: Antimycobacterial MIC, microdilution broth / Alamar Blue (resazurin); format: cell-based; conditions: Mycobacterium tuberculosis
[3] = tested on: M. avium DSM 44156 (ATCC 25291); test: Antimycobacterial MIC, microdilution broth / resazurin; format: cell-based, Mycobacterium avium; conditions: Mycobacterium avium, read-out: MIC M. avium
[4] = tested on: M. smegmatis DSM 43465 (ATCC 607); test: as above; format: cell-based; conditions: Mycolicibacterium smegmatis, read-out: MIC M. smegmatis
[5] = tested on: M. kansasii DSM 44162 (ATCC 12478); test: as above; format: cell-based; conditions: Mycobacterium kansasii, read-out: MIC M. kansasii
[6] = tested on: M. aurum DSM 43999 (ATCC 23366); test: as above; format: cell-based; conditions: Mycolicibacterium aurum, read-out: MIC M. aurum
HepG2 cells = test: HepG2 cytotoxicity screening (CellTiter 96); format: cell-based, human
[7] = tested on: Aspergillus fumigatus ATCC 204305; test: Antifungal microdilution broth (EUCAST); conditions: Aspergillus fumigatus, ATCC204305, 24 h, read-out: MIC AF
[8] = Kinetic water solubility (water-induced precipitation of DMSO stock, UHPLC); format: physicochemical; conditions: 18 °C, water
Description: A low value of log P is often presumed to be related to increased water solubility, although this might not always be the case since log P is a measure of relative solubility of the compound in the lipophilic and hydrophilic solvents (at equilibrium). Therefore, to be sure, we tested whether the lowered log k’w (related to log P) of the oxazole derivatives would also translate to increased solubility in water in a few representative derivatives. The water solubility of selected compounds was assessed by the kinetic method based on water-induced precipitation of DMSO stock solutions of tested compounds due to reasons described by Azzali and colleagues.
Water solubility was investigated using the kinetic solubility method. The sample (1 mg) was dissolved in the smallest amount of DMSO needed, 25 or 50 μL for subtype I and subtype II compounds, respectively. The samples were mixed at 18 °C in a thermomixer (Thermomixer comfort, Eppendorf, Hamburg, Germany) for 1 h. After mixing, the samples were diluted with water to a concentration of 500 μM, and the precipitate was observed. The sample was filtered through a 0.22 μm filter and diluted to be evaluated by UHPLC. The log S parameter was calculated from the experimental solubility in molar concentration. The samples were measured using the same instrument, software, and column as used in the purity evaluation.

[9] = RP-UHPLC lipophilicity parameter log k’w; format: physicochemical
In short: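 Retention was measured once per eluent composition: subtype I at 40/45/50% and subtype II at 20/30/40% acetonitrile in water, isocratic RP-UHPLC. log k values from these runs gave the lipophilicity index log k’w.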

[10] = tested on: Aspergillus flavus CCM 8363; test: Antifungal microdilution broth (EUCAST); conditions: Aspergillus flavus, CCM8363, 24 h, read-out: MIC AFla
[11] = tested on: Trichophyton interdigitale CCM 8377 (ATCC 9533); test: Antifungal microdilution broth (EUCAST); conditions: Trichophyton interdigitale, 72 h, read-out: MIC TI
[12] = tested on: Candida krusei CCM 8271 (ATCC 6258); test: Antifungal microdilution broth (EUCAST); conditions: Pichia kudriavzevii, 24 h, read-out: MIC CK
[13] = tested on: Enterococcus faecalis CCM 4224 (ATCC 29212); test: Antibacterial microdilution broth (EUCAST); format: cell-based; conditions: Enterococcus faecalis; 24h incubation; read-out: MIC EF
[14] = tested on: Lichtheimia corymbifera CCM 8077; test: Antifungal microdilution broth (EUCAST); conditions: Lichtheimia corymbifera, CCM8077, 24 h, read-out: MIC LC
[15] = tested on: Candida parapsilosis CCM 8260 (ATCC 22019); test: Antifungal microdilution broth (EUCAST); conditions: Lodderomyces parapsilosis, 24 h, read-out: MIC CP
[16] = tested on: Staphylococcus aureus subsp. aureus (MRSA) CCM 4750 (ATCC 43300); test: Antibacterial microdilution broth (EUCAST); format: cell-based; conditions: Staphylococcus aureus; 24h incubation; read-out: MIC MRSA
[17] = tested on: Staphylococcus aureus subsp. aureus CCM 4223 (ATCC 29213); test: Antibacterial microdilution broth (EUCAST); format: cell-based; conditions: Staphylococcus aureus; 24h incubation; read-out: MIC SA
[18] = tested on: Escherichia coli CCM 3954 (ATCC 25922); test: Antibacterial microdilution broth (EUCAST); format: cell-based; conditions: Escherichia coli; 24h incubation; read-out: MIC EC
[19] = tested on: Mtb IZAK (MDR clinical isolate); test: microbe, parasite or virus in culture; format: cell-based; conditions: Mycobacterium tuberculosis, read-out: MIC Mtb IZAK
[20] = tested on: Staphylococcus epidermidis CCM 4418 (ATCC 12228); test: Antibacterial microdilution broth (EUCAST); format: cell-based; conditions: Staphylococcus epidermidis; 24h incubation; read-out: MIC SE
[21] = tested on: Mtb MATI (MDR clinical isolate); test: microbe, parasite or virus in culture; format: cell-based; conditions: Mycobacterium tuberculosis, read-out: MIC Mtb MATI
[22] = tested on: Acinetobacter baumannii DSM 30007 (ATCC 19606); test: Antibacterial microdilution broth (EUCAST); format: cell-based; conditions: Acinetobacter baumannii; 24h incubation; read-out: MIC AB
[23] = tested on: Candida albicans CCM 8320 (ATCC 24433); test: Antifungal microdilution broth (EUCAST); conditions: Candida albicans, 24 h, read-out: MIC CA
[24] = tested on: Pseudomonas aeruginosa CCM 3955 (ATCC 27853); test: Antibacterial microdilution broth (EUCAST); format: cell-based; conditions: Pseudomonas aeruginosa; 72h incubation; read-out: MIC PA
[25] = tested on: Candida tropicalis CCM 8264 (ATCC 750); test: Antifungal microdilution broth (EUCAST); conditions: Candida tropicalis, 24 h, read-out: MIC CT
[26] = 120 h, Middlebrook 7H9, resazurin after 120 h, read-out: Mtb H37Ra MIC

For `O=C(Nc1nc(-c2ccc(F)cc2)cs1)c1cncc(Cl)n1` [A], the MIC (M. tuberculosis H37Rv; recalculated to µM) is listed as 2.3 µM and the MIC (M. tuberculosis H37Rv) is listed as 0.78 µg/mL.
In the case of `O=C(Nc1nc(-c2ccccn2)cs1)c1ccncc1` [B], the MIC (M. tuberculosis H37Rv) is listed as 1.6 to 3.1 µM.
Work on `O=C(O)c1cn(C2CC2)c2cc(N3CCNCC3)c(F)cc2c1=O` [CIP, ciprofloxacin, reference compound] yielded an MIC [1] of 0.2 µg/mL (≈ 0.604 µM), an MIC [2, 26] of 0.25 µg/mL and an MIC ([3]; resazurin after 96 h) of 0.25 to 0.5 µg/mL (≈ 0.754 to 1.51 µM). It also gave an MIC ([4]; resazurin after 48 h) of 0.125 µg/mL (≈ 0.377 µM), an MIC ([5]; resazurin after 96 h) of 0.25 µg/mL (≈ 0.754 µM) and an MIC ([6]; resazurin after 72 h) of 0.0156 µg/mL (≈ 0.0472 µM).
Work on `O=C(Nc1ncco1)c1ccnc(Cl)c1` [Compound 6b] yielded an IC50 (HepG2 cells; Homo sapiens, HepG2, 24 h, 24 h incubation, CellTiter 96, * above highest tested concentration, ** limited by insolubility in medium) of 664 µM, an SI (HepG2 cells; SI = IC50 (µM) HepG2 / MICH37Ra (µM)) of 47.5 and an MIC [7] of 125 µM (≈ 28 µg/mL). For the same molecule, the solubility ([8]; water (DMSO stock diluted with water), kinetic from dmso stock, read-out: solubility in water) was over 500 µM, the solubility ([8]; kinetic method, DMSO stock diluted to 500 μM) was “no precipitate” and the “log k’w” value ([9]; RP-UHPLC, acetonitrile/water, log k extrapolated to 0% acetonitrile) was 1.136. For the same molecule, the logkw ([9]; experimental lipophilicity parameter) was 1.136, the MIC [10] was 500 µM (≈ 112 µg/mL) and the MIC [11] was 125 µM (≈ 28 µg/mL). For the same molecule, the MIC [12] was 250 µM (≈ 55.9 µg/mL), the MIC [13] was 500 µM (≈ 112 µg/mL) and the MIC [14] was 62.5 µM (≈ 14 µg/mL). It also gave an MIC [1] of 6.25 µg/mL (≈ 27.9 µM), an MIC [15] of 250 µM (≈ 55.9 µg/mL) and an MIC [16] of 62.5 µM (≈ 14 µg/mL). The MIC [17] was 250 µM (≈ 55.9 µg/mL), the MIC [18] was 62.5 µM (≈ 14 µg/mL) and the MIC [19] was 3.13 µg/mL (≈ 14 µM). For the same molecule, the MIC [2, 26] was 3.12 µg/mL, the MIC ([2]; recalculated from µg/mL, read-out: MICH37Ra) was 14 µM and the MIC ([3]; 96 h) was 3.12 µg/mL (≈ 14 µM). The MIC [20] was 62.5 µM (≈ 14 µg/mL), the melting point was 158 to 162 °C and the MIC ([4]; 48 h) was 6.25 µg/mL (≈ 27.9 µM). It also gave an MIC [21] of 3.13 µg/mL (≈ 14 µM), an MIC ([5]; 96 h) of 3.12 µg/mL (≈ 14 µM) and an MIC [22] of 62.5 µM (≈ 14 µg/mL). For the same molecule, the MIC [23] was 31.2 µM (≈ 6.99 µg/mL), the MIC [24] was over 500 µM and the MIC [25] was 500 µM (≈ 112 µg/mL). The MIC ([6]; 72 h) was 3.12 µg/mL (≈ 14 µM).
